IC50, inhibition and viability data for 4 molecules are collected here from PMC10055714, “The Hypolipidemic Characteristics of a Methanol Extract of Fermented Green Tea and Spore of Eurotium cristatum SXHBTBU1934 in Golden Hamsters” (Nutrients, 2023).

pIC50: −log10 of the molar value.

Data set [1] deals with oleic acid-induced HepG2 cell line model. Description: Oil Red O staining of lipid accumulation in oleic acid-induced HepG2 cells. The data set is classed as cell-based. The following applies: Homo sapiens; Oil Red O assay, OA-induced HepG2, 24 h, area of lipid droplets; read-out: IC50 against lipid accumulation. The protocol:
HepG2 cells were treated with different concentrations of compounds for 24 h, then were washed twice with PBS and fixed with 4% paraformaldehyde for 15–20 min. The cells were washed with PBS and stained with Oil Red O solution (50 µL per well, Sigma-Aldrich) at 25 °C for 1 h. After washed with PBS for 3–5 times, the lipid droplets and cell morphology were observed by a light microscope and photographed. The area of lipid droplets was statistically compared for IC50 calculation with the control group which was treated with DMSO using Image J software.

Data set [2] has the same test system. The data set is described as follows: Bodipy staining of lipid accumulation in oleic acid-induced HepG2 cells. The following applies: Homo sapiens, 24 h, OA-induced HepG2, read-out: Inhibitory Rate of lipid accumulation; for inhibition at 100 µg/mL: 100 μg/mL. In kind it is cell-based. The protocol: After treatment with compounds for 24 h in a 96-well plate, the supernatant of the HepG2 cells was discarded and cells were washed twice with PBS, then the cells were fixed with 4% paraformaldehyde at room temperature for 20 min. After removing the fixative reagent, the cells were washed twice with PBS. HepG2 cells were stained with 100 μL Bodipy (2 μg/mL, Thermo Fisher Scientific (Waltham, MA, USA)) in the dark at 25 °C for 30 min [30]. The fluorescence was measured using a fluorescence plate reader (Ex = 500 nm, Em = 550 nm, POLARstar, BMG Labtech (Offenburg, Germany)). The inhibition rate was calculated by comparison with the control group which was just treated with DMSO.

A short description of data set [3]: CCK-8 cell viability assay. The following applies: human, HepG2 cells. For orientation: Tetrazolium dyes change colour on reduction, which living cells bring about.
Description: Human hepatoma HepG2 cells were obtained from the Beijing Union Medical Cell Resource Center (Basic Medical Cell Center, Institute of Basic Medical Sciences, Chinese Academy of Medical Sciences). The cells were cultured in DMEM containing 10% FBS and 1% penicillin–streptomycin and incubated with 5% CO2 at 37 °C. Cells were allowed to grow to approximately 80% confluency and were sub-cultured at a ratio of 1:3 [27]. In this study, to simulate the process of nonalcoholic fatty liver disease in vitro, 0.2 mM oleic acid (OA) was added to the culture medium for 48 h to induce human HepG2 to establish a nonalcoholic fatty liver cell model [28].
HepG2 cells were seeded into 96-well plates after achieving logarithmic growth and cultured overnight at 37 °C with 5% CO2. After treatment with different concentrations of compounds (dissolved in DMSO) for 24 h, 10 μL CCK-8 solution (Cell Counting Kit-8, Sigma-Aldrich (St. Louis, MO, USA)) was added to each well and the plate was incubated for 2 h in the incubator. Then, the absorbance at 450 nm was measured using a microplate reader. The normal control group was treated with the same amount of DMSO as the experiment group [29]. Cell viability was calculated by: cell viability (%) = (ODdrug/ODcontrol) × 100%.

Broadly, the pIC50 is −log10 of the IC50, conventionally taken in molar units. For orientation: viability means a read-out of living cells in per cent, often relative to untreated cells. In the case of `C=CC(C)(C)c1[nH]c2c(CC3OC3(C)C)cccc2c1C=C1NC(=O)C(C)NC1=O` (centres unmarked) [Compound 1, variecolorin P], in data set [1], the pIC50 was 6.90. Also, the inhibition at 100 µg/mL in data set [2] came to 37.3%. Also, in data set [3], the viability at 24 h, 100 μg/mL was 110%.

On to `C=CC(C)(C)c1[nH]c2cc(CC=C(C)C)ccc2c1/C=C1\NC(=O)[C@H](C)NC1=O` [Compound 3, neoechinulin D], for which the inhibition at 100 µg/mL in data set [2] was -67.3%. Also, the viability at 24 h, 100 μg/mL in data set [3] turned out to be 11.2%.

As for `C=CC(C)(C)c1[nH]c2c(CC=C(C)C)cccc2c1/C=C1\NC(=O)[C@H](C)NC1=O` [Compound 4, variecolorin G], the inhibition at 100 µg/mL in data set [2] is -15.3%.

`C=CC(C)(C)c1[nH]c2c(CC=C(C)C)cc(CC=C(C)C)cc2c1C[C@@H]1NC(=O)[C@H](C)NC1=O` [Compound 5, echinulin]: the inhibition at 25 µg/mL in data set [2] (25 μg/mL) turned out to be 5.46%. Moreover, in data set [3], the viability at 24 h, 25 μg/mL came out at 94.5%.
